Measurements: US20150368715A1, “DIAGNOSTIC AND TREATMENT OF CHRONIC HEART FAILURE” (Institut National de la Sante et de la Recherche Medicale …, priority 2010, published 2015)

What was measured:
Type in all cases: cell-based, rat
H9c2 cardiac myoblasts [1] = assay: Transmission electron microscopy of palmitate treated cells; details: H9c2 (control) cardiac myoblasts treated with palmitate; not shown
caspase 3 = assay: Caspase 3 activity monitoring in cardiac myoblasts; details: ApoO+ cells incubated with palmitate, with or without added agent, FIG. 5A, 5L, 6E, 6F
Description: Palmitate preparation and caspase 3 activity measurement were performed as previously described (Hickson-Bick, Buja et al. 2000; Hirota, Otabe et al. 2006).

AMPK = assay: Western blot analysis of AMPK phosphorylation; details: ApoO+ cardiac myoblasts, with or without palmitate; FIG. 6G
[2] = tested on: long fatty acyl CoA synthetase; assay: Palmitoyl-coA synthase activity in H9c2 cardiac myoblasts; details: control and ApoO+ H9c2 cardiac myoblasts; FIG. 7H
H9c2 cardiac myoblasts [3] = assay: Oxygen flow measurement (cell respiration); details: ApoO+ H9c2 cardiac myoblasts; CCCP 4 to 16 μM cumulative doses; FIG. 8A

CCCCCCCCCCCCCCCC(=O)O [palmitate]
mitochondrial alteration by transmission electron microscopy (H9c2 cardiac myoblasts [1]): no significant effect

NC(=O)c1ncn([C@@H]2O[C@H](CO)[C@@H](O)[C@H]2O)c1N [AICAR, 5-Aminoimidazole-4-carboxyamide ribonucleoside]
caspase 3 activity (caspase 3): significantly reduced | AMPK phosphorylation (AMPK): increased AMPK phosphorylation

CCCC[C@@H](C)[C@@H](OC(=O)C[C@@H](CC(=O)O)C(=O)O)[C@H](C[C@@H](C)C[C@H](O)CCCC[C@@H](O)C[C@H](O)[C@H](C)N)OC(=O)C[C@@H](CC(=O)O)C(=O)O [Fumonisin B1]
caspase 3 activity (caspase 3): lowered caspase 3 activity | caspase 3 activity (caspase 3; listed as fumonisine B): partially attenuated

CCC/C=C/C/C=C/C=C/C=N/NN=O [triacsin C]
palmitoyl-coA activity [2]: inhibited

O=c1cc(N2CCOCC2)oc2c(-c3ccccc3)cccc12 [LY294002]
caspase 3 activity (caspase 3): no significant effect

N#CC(C#N)=NNc1cccc(Cl)c1 [CCCP, Carbonyl cyanide m-chlorophenyl hydrazone]
oxygen consumption (H9c2 cardiac myoblasts [3]): further increased
